Experimental data: paper PMC13586308, “Cell type–selective targeting by heterobifunctional protein binders via in-cell enrichment” (Nature Communications, 2026)

Key:
PNT1A cells [1] = assay: co-culture live cell microscopy cell count, PNT1A; assay type: cell-based; conditions: all concentrations
MYC mRNA [2] = assay: quantitative RT-PCR of MYC mRNA, MV4-11; assay type: cell-based, human; conditions: Homo sapiens, 6 h; MV4-11, six hours, without FKBP12 PROTAC; read-out: MYC mRNA levels IC50
PNT1A cells [3] = assay: CellTiter-Glo cell viability, PNT1A; assay type: cell-based; conditions: concentrations of up to 1 µM
[4] = test system: FKBP and BRD4 family members; assay: global proteomics after PROTAC treatment, MV4-11; assay type: cell-based, Homo sapiens
Procedure: Cell pellets equivalent to those used in the cell uptake assay were resuspended in 220 μL of 50 mM Tris pH 8.0, 2% SDS for 30 min at 850 rpm at RT, and centrifuged at 15000 g for 15 min. […] The supernatant was reduced with 5 mM DTT at 37 °C for 30 min then alkylated with 15 mM iodoacetamide at room temperature for 30 min in the dark. 150 μl of the solutions were subjected to a Protein Aggregation Capture digestion protocol using amine magnetic beads ([…]) and a King Fischer instrument (Thermo Scientific). In short, soluble proteins are captured on the magnetic beads and washed prior to the addition of 1/50 (w/w) trypsin (Promega) for an overnight digestion at 37 °C and 850 rpm. On the consecutive day, digested peptides are released, and the peptide concentration of the supernatants determined using a fluorimetric assay (Pierce). 200 ng peptide was loaded on Evotips (Evosep Biosystems). Peptides were separated on an Evosep One LC system coupled to a timsTOF Pro 2 instrument (Bruker) using a 30-sample-per-day method (44 min gradient). Peptides were resolved on an 8 cm, 1.5 μm x 150 μm Performance column (Evosep Biosystems). […] The relaxed-prot-inf option was used for library-free processing of the data. […] Match between runs (MBR) was enabled, and the normalization option switched on.

[5] = cell uptake assay (LC-MS/MS) in MV4-11
[6] = in vitro metabolic study (intrinsic clearance); assay type: in vitro ADME; conditions: intrinsic clearance (Clint) study, rebuttal letter
Text: 4.2. To strengthen the paper, the authors should consider conducting in vivo experiments to […]
a more comprehensive understanding of the therapeutic potential and pharmacokinetic […]
The current compounds were designed for mechanistic studies, not for in vivo experiments. To assess the possibility of animal studies we conducted an in vitro metabolic study for the two most advanced compounds (a1dj and b3c). […]
labile (see below). While we agree that it is exciting to explore the influence of the CellTrap effect on pharmacokinetic properties this must be explored in follow up studies, which require substantial medicinal chemistry optimization. With the current compounds we believe animal experiments are ethically not warranted.
4.3. Are there specific residues essential for the observed cooperativity? If so, empirically mapping these mutants and testing for a reduction in binding would help validate the structures and provide clues to the translatability of the CellTrap mechanism. […]
mediate the direct protein contacts to BRD4. To explore this, we measured binding of the homolog FKBP51, which differs in the loop/strand regions, to BRD4. […]
cooperativity for any compound, strongly supporting the relevance of the crystallographically observed contact. We discussed this in the text as:
In both ternary complexes, contacts to BRD4BD1 are formed by the tip of the so called 80s loop of […]

[7] = test system: human myeloma cell lines (HMCL); assay: cell viability, panel of human myeloma cell lines +/- FKBP12 PROTAC; assay type: cell-based; conditions: all myeloma cell lines tested
gene expression = assay: RNA sequencing, MV4-11; assay type: cell-based, human; conditions: MV4-11, 6 h
Procedure: RNA was isolated using the Monarch Total RNA Isolation Kit. RNA quality was assessed using an Agilent TapeStation. All samples had calculated RINe values > 6 with a flat baseline. […] Samples were demultiplexed, and FastQ files were generated. Raw FASTQ reads were quality-filtered using fastp v1.3.2 to remove adapters, low-quality bases (Phred ≤ 5 in > 50% of read) and poly-N regions (> 10% N bases), retaining reads with Q20 ≥ 95% and Q30 ≥ 90%. GC content was calculated for clean reads. Filtered sequence reads were aligned to the human reference genome GRCh38 using HISAT2 v2.2.1, guided by GTF annotation. Mapped data were summarized on the gene level as Fragments Per Kilobase of transcript sequence per Millions base pairs sequenced (FPKM). Gene counts were quantified using featureCounts v2.0.6. Further data evaluation, normalization and pairwise differential expression analyses was done by DESeq2. For clustering, all differentially expressed genes were pooled as the differential gene set. FPKM values of genes were hierarchically clustered, rows were homogenized as Z-scores. For enrichment analysis of the differential expressed genes, cluster Profiler (Yu G, 2012) software was used on Gene Ontology (http://www.geneontology.org/) terms reflecting biological processes.

MYC mRNA [8] = assay: wash-off experiment, MYC mRNA in MV4-11; assay type: cell-based, human

Row | Structure (SMILES) | effect on PNT1A cells in co-culture (PNT1A cells [1]) | IC50 (MYC mRNA [2]) | effect on PNT1A viability (PNT1A cells [3]) | effect on BRD4 levels by global proteomics [4] | effect of prior BRD4 depletion on cellular compound levels ([5]; BRD4-degrading PROTAC 43) | concentration in the cellular fraction ([5]; MV4-11, 10 nM a1dj 2 h, mean across four independent experiments) | reduction of intracellular accumulation upon FKBP12 degradation by PROTAC 5a1, mean ([5]; MV4-11, 100 nM 5a1) | approximated concentration in the cellular fraction ([5]; MV4-11, earlier manuscript version quoted in rebuttal) | additional cellular enrichment mediated by other FKBPs ([5]; abolished by competition with 10 µM 18-(S)Me) | FKBP12-mediated share of cellular accumulation ([5]; abolished by prior FKBP12 depletion, earlier manuscript version quoted in rebuttal) | in vitro metabolic stability [6] | cytotoxicity upon depletion of FKBP12 compared to JQ1 [7] | differentially expressed genes compared to JQ1-treated cells (gene expression) | persistence of MYC repression after compound wash-out (MYC mRNA [8])
1 | Cc1sc2c(c1C)C(c1ccc(Cl)cc1)=NC(CC(=O)N1CCC3(CC1)CC(n1cc(C4CN(Cc5ccccn5)C(=O)C5CCCC4N5S(=O)(=O)c4cc(Cl)cc(Cl)c4)nn1)C3)c1nnc(C)n1-2 (stereo not drawn) [a13c] | unaffected | 2.8 nM | did not affect | – | – | – | – | – | – | – | – | – | – | –
2 | Cc1sc2c(c1C)C(c1ccc(Cl)cc1)=NC(CC(=O)NCCOCCn1cc(COCC3CN(C(C)c4ccccn4)C(=O)C4CCCC3N4S(=O)(=O)c3cc(Cl)cc(Cl)c3)nn1)c1nnc(C)n1-2 (stereo not drawn) [a1dj] | – | 5 nM | – | did not affect BRD4 levels | did not affect cellular compound levels | 1680 ± 350 nM | 51% | > 1.8 µM | 22% | 58% | metabolically labile | almost identical to JQ1 | about 300 genes | up to 24 h
3 | Cc1sc2c(c1C)C(c1ccc(C#CCNC(=O)COCCn3cc(C4CN(Cc5ccccn5)C(=O)C5CCCC4N5S(=O)(=O)c4cc(Cl)cc(Cl)c4)nn3)cc1)=NC(CC(=O)OC(C)(C)C)c1nnc(C)n1-2 (stereo not drawn) [b3c] | – | 2 nM | – | – | – | – | – | – | – | – | metabolically labile | – | about 300 genes | –
